Results reported in US20160271162A1, “D-ALANINE PHOSPHORAMIDE PRONUCLEOTIDES OF 2'-METHYL 2'-FLURO GUANOSINE NUCLEOSIDE COMPOUNDS FOR THE TREATMENT OF HCV” (IDENIX PHARMACEUTICALS, LLC, priority 2013, published 2016).

Columns and labels:
HCV genotype 1b replicon = assay: HCV replicon assay (luciferase reporter); type: cell-based; details: Hepatitis C virus, Huh-7-derived Zluc cells, 72 hours incubation
Description: Huh-7-derived cell line (Zluc) that harbors an HCV genotype 1b replicon and a luciferase reporter gene was grown in Dulbecco's Modified Eagle Medium (DMEM) supplemented with 10% fetal bovine serum, 2 mM GlutaMAX, 1% MEM nonessential amino acids, 100 IU/mL penicillin, 100 μg/mL streptomycin, and 0.5 mg/mL Geneticin® (G418). For dose response testing the cells were seeded in 96-well plates at 7.5×10^3 cells per well in a volume of 50 μl, and incubated at 37° C./5% CO2. Drug solutions were made up freshly in Huh-7 media as 2× stocks. Ten additional 5-fold dilutions were prepared from these stocks in DMEM without G418. At least three hours after Zluc cells were seeded, drug treatment was initiated by adding 50 μL of drug dilutions to the plates in duplicate. Final concentrations of drug ranged from 100 μM to 0.0000512 μM. […] After 72 hours of incubation, the inhibition of HCV replication was measured by quantification of photons emitted after mono-oxygenation of 5′-fluoroluciferin to oxyfluoroluciferin by firefly luciferase. […] The plates were shaken gently for 3 min at room temperature and luminescence was measured on a Victor^3 V 1420 multilabel counter (Perkin Elmer) with a 1 second read time using a 700 nm cut-off filter. The EC50 values were calculated from dose response curves from the resulting best-fit equations determined by Microsoft Excel and XLfit 5.2 software. […]

[1] = Cytotoxicity evaluation, CellTiter-Blue cell viability; type: cell-based; details: human, Zluc cells (HCV replicon), CellTiter-Blue Cell Viability Assay
Description: For cytotoxicity evaluation, Zluc cells were treated with compound as described herein, and cell viability was monitored using the CellTiter-Blue Cell Viability Assay (Promega) by adding 20 μL of the assay solution to each well. The plates were then incubated at 37° C./5% CO2 for at least 3 hours. Fluorescence was detected in plates using excitation and emission wavelengths of 531 and 595 nm, respectively, in a Victor^3 V 1420 multilabel counter (Perkin Elmer) and CC50 values were determined using Microsoft Excel and XLfit 5.2 software.

[2] = Liver pharmacokinetics following a single oral dose in CD-1 mice; type: in vivo; details: 2′-Me-2′-F-G TP in liver, single oral dose 10 mg/kg in PEG 200, CD-1 male mice, 4, 12 and 24 hours post dose
Description: A single oral dose of test compound at 10 mg/kg for 104a and 104b in PEG 200 (dose volume 5 mL/kg) is administered to nine CD-1 male mice. Five untreated animals are used for the collection of control plasma and liver. Terminal plasma and liver samples are collected from three animals per time point at 4, 12 and 24 hours post dose. Liver specimens are collected from all animals immediately after the incision. Freezing forceps stored in liquid nitrogen are used to freeze the liver before excision.
Liver samples are analyzed for the active species 2′-methyl-2′-fluoroguanosine triphosphate (2′-Me-2′-F-G TP) by LC-MS/MS. 2′-Me-2′-F-G TP levels are assayed by homogenizing (on ice) a known weight of mouse liver with 4× volume of 0.95 M trichloroacetic acid (TCA). Internal standard solution is added to the homogenate followed by neutralization with 20% ammonium hydroxide solution and addition of 500 μL 1% formic acid. The tissue samples are extracted by weak anion exchange solid phase extraction (SPE). Post extraction, the eluates are evaporated under nitrogen, followed by reconstitution before injection onto the LC-MS/MS system. […] The analyte is detected and quantified by tandem mass spectrometry in positive ion mode on an API4000 equipped with a Turbo Ionspray® interface. […]

SMILES	EC50 (HCV genotype 1b replicon)	CC50 at 72 h [1]	Mouse Liver TP AUC0-24 [2]
CCOc1nc(N)nc2c1ncn2C1O[C@H](COP(=O)(N[C@H](C)C(=O)OC(C)C)Oc2ccccc2)[C@@H](O)[C@@]1(C)F (stereo partly drawn) [Compound 104a]	250 to 1000 nM	> 50000 nM	+++ (500 < +++ ≦ 2000)
CCOc1nc(N)nc2c1ncn2C1O[C@H](CO[P@@](=O)(N[C@H](C)C(=O)OC(C)C)Oc2ccccc2)[C@@H](O)[C@@]1(C)F (stereo partly drawn) [Compound 104b]	250 to 1000 nM	> 50000 nM	+++ (500 < +++ ≦ 2000)
